Counter-ions that a name gives are not always drawn. Like-named read-outs stand apart in the source and are kept apart here.
Tests used:
[1] = target: T1, Alpha-2D adrenergic receptor (Rattus norvegicus, UniProt P22909); experiment: Alpha-2D adrenergic receptor binding assay (3H-para-aminoclonidine, rat cortex synaptic membranes); conditions: ligand 3H-para-aminoclonidine, 25° C. 20 min
T1 construct: aliquots of the synaptic membrane fraction, the ligand ^3H-para-aminoclonidine and test drug; from tissue; host or cells: rat brain cortex synaptic membrane fraction (male Wistar rats)
T1 sequence (P22909 1-465): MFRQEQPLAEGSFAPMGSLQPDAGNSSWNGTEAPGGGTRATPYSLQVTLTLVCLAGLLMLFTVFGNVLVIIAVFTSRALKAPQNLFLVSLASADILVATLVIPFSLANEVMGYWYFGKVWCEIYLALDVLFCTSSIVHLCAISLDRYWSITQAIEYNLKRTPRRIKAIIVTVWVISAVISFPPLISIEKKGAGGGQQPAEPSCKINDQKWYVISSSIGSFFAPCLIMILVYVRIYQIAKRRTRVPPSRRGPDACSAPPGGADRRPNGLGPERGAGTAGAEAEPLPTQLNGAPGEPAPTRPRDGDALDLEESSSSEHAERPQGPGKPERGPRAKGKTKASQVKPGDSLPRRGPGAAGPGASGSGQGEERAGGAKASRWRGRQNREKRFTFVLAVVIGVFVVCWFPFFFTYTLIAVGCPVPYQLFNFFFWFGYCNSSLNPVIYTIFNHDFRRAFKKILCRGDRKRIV
Description: Alpha-2D adrenergic receptor binding assay
Male, Wistar rats (150-250 g, VAF, Charles River, Kingston, N.Y.) are sacrificed by cervical dislocation and their brains removed and placed immediately in ice cold HEPES buffered sucrose. The cortex is dissected out and homogenized in 20 volumes of HEPES sucrose in a Teflon™-glass homogenizer. The homogenate is centrifuged at 1000 g for 10 min, and the resulting supernatant centrifuged at 42,000 g for 10 min. The resulting pellet is resuspended in 30 volumes of 3 mM potassium phosphate buffer, pH 7.5, preincubated at 25° C. for 30 min and recentrifuged. The resulting pellet is resuspended as described above and used for the receptor binding assay. […] The incubation is terminated by filtration of the tube contents through glass fiber filter sheets. Following washing of the sheets with 10 mM HEPES buffer, the adhering radioactivity is quantified by liquid scintillation spectrometry.
Binding of the test drug to the receptor is determined by comparing the amount of radiolabeled ligand bound in control tubes without drug to the amount of radiolabeled ligand bound in the presence of the drug. Dose-response data are analyzed with LIGAND, a nonlinear curve fitting program designed specifically for the analysis of ligand binding data.

SMILES	Ki ([1]; α2D Ki) [nM]	other results
CC(c1c[nH]cn1)c1cc2ccccc2s1 (centres unmarked) [Cp-3]	14	–
c1ccc2sc(Cc3c[nH]cn3)cc2c1 [Cp-1]	1.1	–
c1ccc2sc(-c3c[nH]cn3)cc2c1 [Cp-9]	–	Ki ([1]; read-out: α2D Ki): 18 nM
OC(c1c[nH]cn1)c1cc2ccccc2s1 (centres unmarked) [Cp-2]	74.9	–
c1ccc2c(Cc3c[nH]cn3)csc2c1 [Cp-6]	0.09	–
c1nc(Cc2nc3c(s2)CCCC3)c[nH]1 [Cp-11]	–	Ki ([1]; read-out: α2D Ki): 110 nM
c1nc(Cc2nc3c(s2)CCCC3)c[nH]1 (as salt: fumaric acid salt) [Cp-11]	–	melting point: 169 to 171 °C
Brc1c(Cc2c[nH]cn2)sc2ccccc12 [Cp-4]	0.22	–

From patent publication US20020025974A1, “BICYCLE THIOPHENES AND THIAZOLES” (priority 1998, published 2002)
